Assay results taken from PubChem BioAssay AID2060513 (Molecular Pharmacology Branch, DTP, NCI, 2025).

Test system: 299254-011-R-J1-PDC complex spheroids viability
Experiment: Anticancer human tumor 299254-011-R-J1-PDC patient-derived melanoma cell line growth inhibition [GQUAD]
Details: for IC50: curve of first compound; for viability, T/C: stronger effect = lower value; active means viability on the fitted dose curve at most 10% of control; inactive means the rest
Method in brief: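 Tumor cells were grown as complex spheroids with HUVEC endothelial cells and mesenchymal stem cells as stroma. G-quadruplex stabilizers were combined with targeted agents over half-log dilutions from near the clinical Cmax, or from 10 microM.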

[1] = second compound 0.0316 µM, first compound 0.0316 µM
[2] = second compound 0.0316 µM, first compound 0.1 µM
[3] = second compound 0.0316 µM, first compound 0.316 µM
[4] = second compound 0.0316 µM, first compound 1 µM
[5] = second compound 0.0316 µM, first compound 3.16 µM
[6] = second compound 0.0316 µM, first compound 10 µM
[7] = second compound 0.1 µM, first compound 0.0316 µM
[8] = second compound 0.1 µM, first compound 0.1 µM
[9] = second compound 0.1 µM, first compound 0.316 µM
[10] = second compound 0.1 µM, first compound 1 µM
[11] = second compound 0.1 µM, first compound 3.16 µM
[12] = second compound 0.1 µM, first compound 10 µM
[13] = second compound 0.316 µM, first compound 0.0316 µM
[14] = second compound 0.316 µM, first compound 0.1 µM
[15] = second compound 0.316 µM, first compound 0.316 µM
[16] = second compound 0.316 µM, first compound 1 µM
[17] = second compound 0.316 µM, first compound 3.16 µM
[18] = second compound 0.316 µM, first compound 10 µM
[19] = second compound 1 µM, first compound 0.0316 µM
[20] = second compound 1 µM, first compound 0.1 µM
[21] = second compound 1 µM, first compound 0.316 µM
[22] = second compound 1 µM, first compound 1 µM
[23] = second compound 1 µM, first compound 3.16 µM
[24] = second compound 1 µM, first compound 10 µM
[25] = second compound 3.16 µM, first compound 0.0316 µM
[26] = second compound 3.16 µM, first compound 0.1 µM
[27] = second compound 3.16 µM, first compound 0.316 µM
[28] = second compound 3.16 µM, first compound 1 µM
[29] = second compound 3.16 µM, first compound 3.16 µM
[30] = second compound 3.16 µM, first compound 10 µM
[31] = second compound 10 µM, first compound 0.0316 µM
[32] = second compound 10 µM, first compound 0.1 µM
[33] = second compound 10 µM, first compound 0.316 µM
[34] = second compound 10 µM, first compound 1 µM
[35] = second compound 10 µM, first compound 3.16 µM
[36] = second compound 10 µM, first compound 10 µM
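Further: spheroids exposed to the agents for seven days before readout.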
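Wherever viability, T/C is given: percent viability relative to DMSO vehicle control wells = 100%.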

COc1ncnc(C2CC2)c1-c1ncc2cnn(Cc3ccc(-c4nc(C(F)(F)F)cn4C(C)C)cc3)c2n1 + CN(C)c1ccc(Nc2c3ccc(NC(=O)CCN4CCCC4)cc3nc3cc(NC(=O)CCN4CCCC4)ccc23)cc1
inactive: viability, T/C [1] 92.6% | viability, T/C [2] 78.1% | viability, T/C [3] 106% | viability, T/C [4] 98.3% | viability, T/C [5] 101% | viability, T/C [6] 88% | viability, T/C [7] 102% | viability, T/C [8] 97.3% | viability, T/C [9] 114% | viability, T/C [10] 96.3% | viability, T/C [11] 97.4% | viability, T/C [12] 121% | viability, T/C [13] 101% | viability, T/C [14] 103% | viability, T/C [15] 92.2% | viability, T/C [16] 99.4% | viability, T/C [17] 101% | viability, T/C [18] 117% | viability, T/C [19] 117% | viability, T/C [20] 77% | viability, T/C [21] 98.6% | viability, T/C [22] 98.6% | viability, T/C [23] 99.8% | viability, T/C [24] 107% | viability, T/C [25] 86.9% | viability, T/C [26] 99.8% | viability, T/C [27] 86.5% | viability, T/C [28] 105% | viability, T/C [29] 113% | viability, T/C [30] 104% | viability, T/C [31] 93.3% | viability, T/C [32] 110% | viability, T/C [33] 96.2% | viability, T/C [34] 79.4% | viability, T/C [35] 89.5% | viability, T/C [36] 93.7%
> 10 µM: IC50 (second compound 0.0316 µM) | IC50 (second compound 0.1 µM) | IC50 (second compound 0.316 µM) | IC50 (second compound 1 µM) | IC50 (second compound 3.16 µM) | IC50 (second compound 10 µM)

CC(C)n1c(=O)n(C)c2cnc3cc(F)c(-c4ccc(OCCCN5CCCCC5)nc4)cc3c21 + CN(C)c1ccc(Nc2c3ccc(NC(=O)CCN4CCCC4)cc3nc3cc(NC(=O)CCN4CCCC4)ccc23)cc1
2.13 µM: IC50 (second compound 10 µM)
8.13 µM: IC50 (second compound 0.316 µM)
inactive: viability, T/C [1] 102% | viability, T/C [2] 108% | viability, T/C [3] 91.2% | viability, T/C [4] 76.3% | viability, T/C [5] 94% | viability, T/C [6] 46.7% | viability, T/C [7] 93.4% | viability, T/C [8] 79.6% | viability, T/C [9] 106% | viability, T/C [10] 80.7% | viability, T/C [11] 81.3% | viability, T/C [12] 42.7% | viability, T/C [13] 86.4% | viability, T/C [14] 102% | viability, T/C [15] 87% | viability, T/C [16] 93.2% | viability, T/C [17] 85.7% | viability, T/C [18] 42.1% | viability, T/C [19] 91.6% | viability, T/C [20] 87.1% | viability, T/C [21] 79.4% | viability, T/C [22] 77.6% | viability, T/C [23] 85.9% | viability, T/C [24] 36.5% | viability, T/C [25] 93.9% | viability, T/C [26] 81.8% | viability, T/C [27] 86.2% | viability, T/C [28] 77.2% | viability, T/C [29] 61.9% | viability, T/C [30] 38.1% | viability, T/C [31] 83.2% | viability, T/C [32] 79.9% | viability, T/C [33] 77% | viability, T/C [34] 64.5% | viability, T/C [35] 42.4% | viability, T/C [36] 28.9%
5.7 µM: IC50 (second compound 3.16 µM)
8.05 µM: IC50 (second compound 0.1 µM)
7.22 µM: IC50 (second compound 1 µM)
9.23 µM: IC50 (second compound 0.0316 µM)

O=c1[nH]cc(F)c(=O)[nH]1 + Cc1cnc(CNC(=O)c2c(=O)c3ccc(N4CCCN(C)CC4)nc3n3c2sc2ccccc23)cn1
inactive: viability, T/C [1] 90.9% | viability, T/C [2] 86% | viability, T/C [3] 110% | viability, T/C [4] 84.3% | viability, T/C [5] 106% | viability, T/C [6] 106% | viability, T/C [7] 92.8% | viability, T/C [8] 92.1% | viability, T/C [9] 105% | viability, T/C [10] 88.1% | viability, T/C [11] 99.1% | viability, T/C [12] 98.5% | viability, T/C [13] 83.7% | viability, T/C [14] 123% | viability, T/C [15] 99.4% | viability, T/C [16] 88.5% | viability, T/C [17] 89.8% | viability, T/C [18] 105% | viability, T/C [19] 86.9% | viability, T/C [20] 78% | viability, T/C [21] 74.8% | viability, T/C [22] 92.4% | viability, T/C [23] 94.5% | viability, T/C [24] 91.3% | viability, T/C [25] 96% | viability, T/C [26] 76% | viability, T/C [27] 82.5% | viability, T/C [28] 84.2% | viability, T/C [29] 95.2% | viability, T/C [30] 91.3% | viability, T/C [31] 58.7% | viability, T/C [32] 16.9% | viability, T/C [33] 57.7% | viability, T/C [34] 65.6% | viability, T/C [35] 55.4%
0.0316 µM: IC50 (second compound 10 µM)
> 10 µM: IC50 (second compound 0.0316 µM) | IC50 (second compound 0.1 µM) | IC50 (second compound 0.316 µM) | IC50 (second compound 1 µM) | IC50 (second compound 3.16 µM)
active: viability, T/C [36] 2.68%

O=C(c1cc(Cc2n[nH]c(=O)c3ccccc23)ccc1F)N1CCN(C(=O)C2CC2)CC1 + CN(C)c1ccc(Nc2c3ccc(NC(=O)CCN4CCCC4)cc3nc3cc(NC(=O)CCN4CCCC4)ccc23)cc1
inactive: viability, T/C [1] 81.9% | viability, T/C [2] 88.2% | viability, T/C [3] 94% | viability, T/C [4] 92.7% | viability, T/C [5] 89.4% | viability, T/C [6] 78.1% | viability, T/C [7] 78.9% | viability, T/C [8] 78.1% | viability, T/C [9] 85.4% | viability, T/C [10] 96.8% | viability, T/C [11] 90.7% | viability, T/C [12] 80.9% | viability, T/C [13] 95.6% | viability, T/C [14] 89.1% | viability, T/C [15] 87.5% | viability, T/C [16] 82.8% | viability, T/C [17] 96.1% | viability, T/C [18] 85.5% | viability, T/C [19] 87.9% | viability, T/C [20] 95.2% | viability, T/C [21] 96% | viability, T/C [22] 101% | viability, T/C [23] 106% | viability, T/C [24] 80.2% | viability, T/C [25] 79.7% | viability, T/C [26] 86.9% | viability, T/C [27] 99.9% | viability, T/C [28] 91.1% | viability, T/C [29] 95.8% | viability, T/C [30] 68.1% | viability, T/C [31] 96.2% | viability, T/C [32] 92.3% | viability, T/C [33] 82.8% | viability, T/C [34] 89.2% | viability, T/C [35] 87.6% | viability, T/C [36] 95%
> 10 µM: IC50 (second compound 0.0316 µM) | IC50 (second compound 0.1 µM) | IC50 (second compound 0.316 µM) | IC50 (second compound 1 µM) | IC50 (second compound 3.16 µM) | IC50 (second compound 10 µM)
